Reference: paper PMC4258814, “Differences between murine arylamine N-acetyltransferase type 1 and human arylamine N-acetyltransferase type 2 defined by substrate specificity and inhibitor binding” (BMC Pharmacology & Toxicology, 2014)
Changes are numbered by the printed parent chain. Marks after values point to notes of the source that are not given here. One block for each compound: values may come before it.

Columns and labels:
(MOUSE)NAT2*1 [1] = molecular target: T1, (MOUSE)NAT2*1 (Mus musculus, UniProt P50295); experiment: Substrate specific N-acetylation profile; assay type: biochemical; details: substrate 500 μM, relative to substrate with highest specific activity (100%), mean of 3 ± SD
T1 construct: made in house
T1 sequence (P50295 1-290): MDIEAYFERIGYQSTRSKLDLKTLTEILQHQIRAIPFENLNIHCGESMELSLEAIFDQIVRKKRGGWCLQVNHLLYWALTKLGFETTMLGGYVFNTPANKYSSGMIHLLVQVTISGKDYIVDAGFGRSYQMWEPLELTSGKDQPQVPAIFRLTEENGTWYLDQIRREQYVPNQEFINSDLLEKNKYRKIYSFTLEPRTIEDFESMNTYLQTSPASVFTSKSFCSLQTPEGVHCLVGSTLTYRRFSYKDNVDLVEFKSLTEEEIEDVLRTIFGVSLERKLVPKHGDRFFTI

(MOUSE)NAT2_F125S [2] = molecular target: T2, (MOUSE)NAT2_F125S (Mus musculus, UniProt P50295, F125S); experiment: Substrate specific N-acetylation profile; assay type: biochemical; details: (MOUSE)NAT2 F125S; substrate 500 μM; relative to substrate with highest specific activity (100%); mean of 3 ± SD
T2 construct: His tag (only implied by Ni-NTA purification) (cleaved yes); made in house; host or cells: E. coli Rosetta(DE3)pLysS
T2 sequence (P50295 1-290 F125S): T1 sequence (P50295 1-290) with F125S

(MOUSE)NAT2_R127G [3] = molecular target: T3, (MOUSE)NAT2_R127G (Mus musculus, UniProt P50295, R127G); experiment: Substrate specific N-acetylation profile; assay type: biochemical; details: (MOUSE)NAT2 R127G; substrate 500 μM; relative to substrate with highest specific activity (100%); mean of 3 ± SD
T3 construct: made in house
T3 sequence (P50295 1-290 R127G): T1 sequence (P50295 1-290) with R127G

(MOUSE)NAT2_R127L [4] = molecular target: T4, (MOUSE)NAT2_R127L (Mus musculus, UniProt P50295, R127L); experiment: Substrate specific N-acetylation profile; assay type: biochemical; details: (MOUSE)NAT2 R127L; substrate 500 μM; relative to substrate with highest specific activity (100%); mean of 3 ± SD
T4 construct: made in house
T4 sequence (P50295 1-290 R127L): T1 sequence (P50295 1-290) with R127L

(MOUSE)NAT1*1 [5] = molecular target: T5, (MOUSE)NAT1*1 (Mus musculus, UniProt P50294); experiment: Substrate specific N-acetylation profile; assay type: biochemical; details: substrate 500 μM, relative to substrate with highest specific activity (100%), mean of 3 ± SD
T5 construct: The open reading frame of (MOUSE)Nat1*1 [32] was subcloned; hexa-His (N, cleaved yes); made in house; host or cells: Escherichia coli BL21(DE3)CodonPlus-RIL
T5 sequence (P50294 1-290): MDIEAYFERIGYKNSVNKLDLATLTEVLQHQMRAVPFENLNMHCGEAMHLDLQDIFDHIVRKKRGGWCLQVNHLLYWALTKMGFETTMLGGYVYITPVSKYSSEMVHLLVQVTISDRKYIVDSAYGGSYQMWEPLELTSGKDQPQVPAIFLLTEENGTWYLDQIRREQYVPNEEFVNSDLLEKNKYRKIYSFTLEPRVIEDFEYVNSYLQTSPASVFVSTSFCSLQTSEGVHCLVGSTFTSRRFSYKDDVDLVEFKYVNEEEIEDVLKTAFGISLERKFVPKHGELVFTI

(HUMAN)NAT1*4 [6] = tested on: (HUMAN)NAT1*4; set-up: method as in PMID 15627487, PMID 18280460; details: substrate 500 μM, relative to substrate with highest specific activity (100%), mean of 3 ± SD, ref [8], [22]; cited from earlier work
(MESAU)NAT2*1 [7] = tested on: (MESAU)NAT2*1; set-up: method as in PMID 15627487, PMID 18280460; details: substrate 500 μM, relative to substrate with highest specific activity (100%), mean of 3 ± SD, ref [8], [22]; cited from earlier work
(HUMAN)NAT2*4 [8] = molecular target: T6, (HUMAN)NAT2*4 (Homo sapiens, UniProt P11245); set-up: method as in PMID 15627487, PMID 18280460; details: substrate 500 μM, relative to substrate with highest specific activity (100%), mean of 3 ± SD, ref [8], [22]; cited from earlier work
T6 construct: made in house
T6 sequence (P11245 1-290): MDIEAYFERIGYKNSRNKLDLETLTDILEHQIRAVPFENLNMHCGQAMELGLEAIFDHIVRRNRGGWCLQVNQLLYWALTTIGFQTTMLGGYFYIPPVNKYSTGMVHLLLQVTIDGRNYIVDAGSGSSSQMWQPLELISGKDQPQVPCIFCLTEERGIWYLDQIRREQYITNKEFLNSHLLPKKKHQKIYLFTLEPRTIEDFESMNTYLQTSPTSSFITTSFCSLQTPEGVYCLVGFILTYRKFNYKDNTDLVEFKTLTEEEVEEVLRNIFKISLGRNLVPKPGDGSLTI

[9] = ref [56]–[61]; cited from earlier work
(HUMAN)NAT2*4 [10] = molecular target: T6, (HUMAN)NAT2*4; experiment: Inhibition of NAT activity (AcCoA hydrolysis rate); assay type: biochemical; details: AcCoA 400 μM, substrate 2-aminofluorene, 5% DMSO
Description: (§1) The final concentration of dimethyl sulphoxide (DMSO) in reaction mixes was 5% (v/v). IC50 values were estimated using a dose–response-based regression model in Kyplot® software. Curves were fitted by least squares analysis with confidence limits of 95%.

(MOUSE)NAT1*1 [11] = molecular target: T5, (MOUSE)NAT1*1; experiment: Inhibition of NAT activity (AcCoA hydrolysis rate); assay type: biochemical; details: AcCoA 400 μM, substrate 5AS, 5% DMSO
Description: as §1

(MOUSE)NAT2_F125S [12] = molecular target: T2, (MOUSE)NAT2_F125S; experiment: Inhibition of NAT activity (AcCoA hydrolysis rate); assay type: biochemical; details: AcCoA 400 μM, substrate 5AS, 5% DMSO
Description: as §1

(HUMAN)NAT1*4 [13] = tested on: (HUMAN)NAT1*4; set-up: method as in PMID 23940600; details: read-out: IC50 with naphthoquinone 1, AcCoA 400 μM, substrate 4ABA, ref [25]; cited from earlier work
(MOUSE)NAT2*1 [14] = molecular target: T1, (MOUSE)NAT2*1; set-up: method as in PMID 23940600, PMID 20170182; details: read-out: IC50 with naphthoquinone 1, AcCoA 400 μM, substrate 4ABA, ref [25], [24]; cited from earlier work
(MESAU)NAT2*1 [15] = tested on: (MESAU)NAT2*1; set-up: method as in PMID 24758871; details: read-out: IC50 with naphthoquinone 1, AcCoA 400 μM, substrate 4ABA, ref [26]; cited from earlier work
(MOUSE)NAT2*1 [16] = molecular target: T1, (MOUSE)NAT2*1; set-up: method as in PMID 23940600, PMID 20170182; details: in presence of (MOUSE)NAT2*1; ref [25], [24]; cited from earlier work
(MOUSE)NAT2_R127G [17] = molecular target: T3, (MOUSE)NAT2_R127G; set-up: method as in PMID 23940600; details: in presence of (MOUSE)NAT2_R127G; ref [25]; cited from earlier work
(MOUSE)NAT2_R127L [18] = molecular target: T4, (MOUSE)NAT2_R127L; set-up: method as in PMID 23940600; details: in presence of (MOUSE)NAT2_R127L; ref [25]; cited from earlier work
(MOUSE)NAT1*1 [19] = molecular target: T5, (MOUSE)NAT1*1; set-up: method as in PMID 20170182; details: in presence of (MOUSE)NAT1*1; ref [24]; cited from earlier work
(HUMAN)NAT2*4 [20] = molecular target: T6, (HUMAN)NAT2*4; set-up: method as in PMID 23940600; details: in presence of (HUMAN)NAT2*4; ref [25]; cited from earlier work

% specific activity values ((MOUSE)NAT2*1 [1]): 4 ± 1% | % specific activity values ((MOUSE)NAT2_F125S [2]): 1 ± 1% | % specific activity values ((MOUSE)NAT2_R127G [3]): 19 ± 2% | % specific activity values ((MOUSE)NAT2_R127L [4]): 3 ± 1% | % specific activity values ((MOUSE)NAT1*1 [5]): 88 ± 6%
SMILES: Cc1cc(C)nc(NS(=O)(=O)c2ccc(N)cc2)n1 [SMZ, sulfamethazine]
% specific activity values ((HUMAN)NAT1*4 [6]): 1 ± 1% | % specific activity values ((MESAU)NAT2*1 [7]): 1 ± 1% | % specific activity values ((HUMAN)NAT2*4 [8]): 46 ± 1% | pKa(H) (NH3^+) [9]: 2.4 | pKa(H) (sulfonamide) [9]: 7.4

IC50 ((HUMAN)NAT2*4 [10]): > 100 µM | IC50 ((MOUSE)NAT1*1 [11]): 130 µM | IC50 ((MOUSE)NAT2_F125S [12]): 68.7 µM
SMILES: Cc1cc(C)cc(NC2=C(NS(=O)(=O)c3ccccc3)C(=O)c3ccccc3C2=O)c1 [naphthoquinone 1, N-(3-(3,5-dimethylphenylamino)-1,4-dioxo-1,4-dihydronaphthalen-2-yl)benzenesulphonamide]
IC50 ((HUMAN)NAT1*4 [13]): 5.3 µM | IC50 ((MOUSE)NAT2*1 [14]): 1.3 µM | IC50 ((MESAU)NAT2*1 [15]): 89 µM | λ max of naphthoquinone 1 ((MOUSE)NAT2*1 [16]): 625^a,b nm | λ max of naphthoquinone 1 ((MOUSE)NAT2_R127G [17]): 498^a nm | λ max of naphthoquinone 1 ((MOUSE)NAT2_R127L [18]): 498^a nm | λ max of naphthoquinone 1 ((MOUSE)NAT1*1 [19]): 498^b nm | λ max of naphthoquinone 1 ((HUMAN)NAT2*4 [20]): 498^a nm
